Laboratory results reported in patent publication US7998932B2, “Inhibition of angiogenesis by neutrophil alpha-defensins” (The Trustees of the University of Pennsylvania, priority 2003, dated 2011).

Tested on: HUVEC
Assay: HUVEC proliferation by BrdU incorporation
Type: cell-based, human
Settings: over a period of 24 hours; 10 ng/ml VEGF or 1 μM sphingosine-1-phosphate
Procedure: Cell proliferation: Endothelial cell proliferation was determined by measuring the incorporation of bromodeoxyuridine (BrdU). Endothelial cells were plated onto 96-well plates and incubated for 12 hours after which the medium was changed to MCDB-131 containing 0.05% FCS. Cells were then incubated for 24 hours in the absence or presence of stimuli or competitors. BrdU was added to the medium during the last 6 hours of incubation. The cells were then fixed and cell proliferation was quantified with a standardized calorimetric immunoassay (Roche Diagnostics, Mannheim, Germany) according to the manufacturer's instructions.

Row | Compound | increase of DNA synthesis in HUVEC
1 | CCCCCCCCCCCCC/C=C/[C@@H](O)[C@@H](N)COP(=O)(O)O [sphingosine-1-phosphate] | approximately two-fold
2 | VEGF | approximately two-fold
